Target: T1, hSK3 channels (Homo sapiens, UniProt Q9UGI6)
T1 construct: expressed in transfected cells; host or cells: HEK293
Assay: Whole-cell patch-clamp recording of ionic current through SK channels (subtype 3)
Type: cell-based
Conditions: HEK293 cells expressing hSK3 channels
Protocol: The ionic current through small-conductance Ca^2+-activated K^+ channels (SK channels, subtype 3) is recorded using the whole-cell configuration of the patch-clamp technique in a classic patch-clamp set-up using HEK293 tissue culture cells expressing hSK3 channels as described in e.g. WO 2006/100212.
The SC100 value determined is defined as the Stimulating Concentration required for increasing the baseline current by 100%. The below SC100 value is an indication of the SK3 activating properties of the compound of the invention.

- SC100 (Stimulating Concentration required for increasing the baseline current by 100%): 0.04 µM
SMILES: Cc1ccn(-c2nc(Nc3ccc(F)c(F)c3)c3ncn(C)c3n2)n1 [Compound 5.1, (3,4-Difluoro-phenyl)-[9-methyl-2-(3-methyl-pyrazol-1-yl)-9H-purin-6-yl]-amine]

From patent publication US20100130516A1, “PURINYL DERIVATIVES AND THEIR USE AS POTASSIUM CHANNEL MODULATORS” (NeuroSearch A/S, priority 2007, published 2010)
